Read-outs that look alike come from different tables or passages of the source.
Assays:
Phytophthora infestans = format: in vivo; settings: tomato plants, preventive spray, evaluated 3 days after inoculation
Venturia inaequalis = assay: Venturia test (apples)/preventive; settings: apple plants, preventive spray, 100 ppm a.i., evaluated 10 days after inoculation
Protocol: Venturia Test (Apples)/Preventive
Solvent: 24,5 parts by weight of acetone • 24,5 parts by weight of dimethylacetamide
Emulsifier: part by weight of alkylaryl polyglycol ether
After the spray coating has dried on the plants are inoculated with an aqueous conidia suspension of the causal agent of apple scab (Venturia inaequalis) and then remain for 1 day in an incubation cabinet at approximately 20° C. and a relative atmospheric humidity of 100%.
The plants are then placed in a greenhouse at approximately 21° C. and a relative atmospheric humidity of approximately 90%.
The test is evaluated 10 days after the inoculation.

Compound	Efficacy in % found (Phytophthora infestans; 1 ppm a.i.) [%]	Efficacy in % found (Venturia inaequalis) [%]	Efficacy in % found (Phytophthora infestans; 0.01 ppm a.i.) [%]
Cn1nnnc1/C(=N\OCc1cccc(NC(=O)OC(C)(C)C)n1)c1ccccc1 [(A2)]	46	22	
Cc1cc(C(F)(F)F)nn1CC(=O)N1CCC(c2nc(C3=NOC(c4c(F)cccc4F)C3)cs2)CC1 (stereo not shown) [(B2), 1-(4-{4-[5-(2,6-difluorophenyl)-4,5-dihydro-1,2-oxazol-3-yl]-1,3-thiazol-2-yl}piperidin-1-yl)-2-[5-methyl-3-(trifluoromethyl)-1H-pyrazol-1-yl]ethanone]		0	30
